Where two headings read alike, the source gives them in different places. Where a SMILES comes first, the peptide text is derived from it. Where no end group is shown, it is not given here. [ ]: non-standard residue; d: D form. The star is where a group is joined. Phe(4-Cl) = N[C@@H](Cc1ccc(Cl)cc1)C(=O)O; dPhe(4-Cl) = N[C@H](Cc1ccc(Cl)cc1)C(=O)O; dPhe(4-F) = N[C@H](Cc1ccc(F)cc1)C(=O)O; 2Nal = N[C@@H](Cc1ccc2ccccc2c1)C(=O)O; d2Nal = N[C@H](Cc1ccc2ccccc2c1)C(=O)O; Fmoc = O=C(OCC1c2ccccc2-c2ccccc21)*; 2Thi = N[C@@H](Cc1cccs1)C(=O)O; Cha = N[C@@H](CC1CCCCC1)C(=O)O
Assays:
XIAP-inhibited caspase-3 = target: T1, XIAP-inhibited caspase-3 (Homo sapiens, UniProt P98170); experiment: IAP derepression assay: Ac-DEVD-AFC hydrolysis by caspase-3 in the presence of GST-XIAP; format: biochemical; settings: for activity in the caspase derepression assay using full length XIAP: in words; for Activity* (relative caspase-3 activity: Vmax in the presence of compound / Vmax of controls having caspase-3 and XIAP): XIAP derepression assay; for reversing XIAP-mediated suppression of caspase 3: 50 μg/ml, full length XIAP
T1 construct: in a caspase derepression assay using full length XIAP; made in house; host or cells: bacteria
T1 sequence (P98170 whole entry): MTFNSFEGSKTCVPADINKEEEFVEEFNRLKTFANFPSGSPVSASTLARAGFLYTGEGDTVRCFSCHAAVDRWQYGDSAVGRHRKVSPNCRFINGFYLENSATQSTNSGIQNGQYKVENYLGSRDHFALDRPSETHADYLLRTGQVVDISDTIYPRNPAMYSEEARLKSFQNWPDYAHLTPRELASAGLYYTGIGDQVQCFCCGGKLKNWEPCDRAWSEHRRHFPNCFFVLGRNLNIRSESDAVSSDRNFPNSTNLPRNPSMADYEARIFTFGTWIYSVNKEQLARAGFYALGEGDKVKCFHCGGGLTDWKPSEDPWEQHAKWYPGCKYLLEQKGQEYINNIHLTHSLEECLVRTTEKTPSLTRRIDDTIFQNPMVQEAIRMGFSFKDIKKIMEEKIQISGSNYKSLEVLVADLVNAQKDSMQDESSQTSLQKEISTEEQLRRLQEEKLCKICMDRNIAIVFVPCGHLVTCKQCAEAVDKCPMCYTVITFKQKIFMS
Protocol: The ratio of Vmax for hydrolysis of Ac-DEVD-AFC in the presence and absence of the candidate mixture was calculated and used to identify those that contain an agent that derepresses an IAP-inhibited caspase.
Each mixture was aliquoted in a 25 microliter volume and in duplicate to a well of a 96 well microtiter plate. […] Fluorescence of liberated AFC was immediately detected from each well for 30 minutes at 30 second intervals. The Vmax for hydrolysis of AC-DEVD-AFC from each well was measured using the softmax software package.

full length XIAP = full length XIAP (Homo sapiens, UniProt P98170); experiment: Potency of IAP antagonists in vitro (Table VIII; caspase derepression / SMAC competition with full length XIAP); settings: for Relative Potency (fold versus SMAC peptide): SMAC AVPI tetrapeptide = 1.0; for EC50: amount of compound necessary to restore caspase-3 activity to 50% of Vmax
full length XIAP, sequence (P98170 whole entry): as above

XIAP = XIAP (Homo sapiens, UniProt P98170); experiment: SMAC binding/competition assay: biotinylated SMAC 7-mer on NeutrAvidin plates, GST-XIAP detected by anti-GST; settings: in words
XIAP, sequence (P98170 whole entry): as above
Protocol: Peptide compounds containing unnatural amino acids in the 792 series, 792-33 and 792-35 (see FIG. 12 and 20 and Example XI), and an active compound in the TPI 1332 series, TPI 1332-69, were tested for binding activity in the SMAC binding assay as described above in Example X. For this assay, biotinylated SMAC 7-mer peptide (50 ng) was bound to 96 well plates coated with NeutrAvidin (Pierce, Rockford, Ill.) at 1 mg/ml in 100 μl per well of 50 mM HEPES pH 7.4, 100 mM NaCl 1 mM EDTA, 10% sucrose, 0.1% CHAPS, 10 mM DTT.

[1] = system: ALVA31 prostate cancer cells; experiment: ALVA31 prostate cancer cell viability (XTT dye-reduction, trypan blue); format: cell-based; settings: 24 hrs; for cell viability, compound alone: peptides 40 μM, VP-16 100 μM; for tumor cell killing, combination with VP-16: peptide 40 μM with VP-16 100 μM
Protocol: The in vivo effects of TPI 792-33 or TPI 792-35, either individually or in combination with the cytotoxic anticancer drug VP-16 (etoposide), on derepression of XIAP-inhibited caspase and viability of ALVA31 cells was determined as follows. ALVA31 prostate cancer cells were seeded onto 96 well plates (10^4 cells/well) in 100 μL RPMI containing 2.5% fetal bovine serum (FBS). […] After another 24 hrs-incubation, cell viability was measured by the XTT dye-reduction assay (Roche, Molecular Biochemicals; Indianapolis, Ind.) and trypan blue dye exclusion assay.

Jurkat leukemia cells = experiment: Jurkat leukemia cell death, Annexin V/propidium iodide flow cytometry; format: cell-based; settings: for cells killed: one day treatment
Protocol: The following assay was used to test the ability of individual compounds from the TPI 1396 and TPI 1391 libraries to induce apoptosis of cultured tumor cell lines. Each of the compounds listed in Table IX was individually added to Jurkat leukemia cells (6.25×10^5 cells/mL) in RPMI containing 2.5% FBS at various concentrations for 20 hours. After incubation, cells were washed and stained with FITC-conjugated Annexin V antibody and propidium iodide (Biovision; Mountain View, Calif.). Cells were incubated for 20 minutes at room temperature in the dark and fluorescence was measured by flow cytometry (FACScan, Immunocytometry system; Becton-Dickinson; San Jose, Calif.). Cells staining positive for Annexin V were deemed non-viable.
The TPI I396-34 and TPI 1391-28 compounds were further tested as set forth below.

[2] = system: normal bone marrow mononuclear cells; experiment: Normal bone marrow mononuclear cells versus Jurkat, Annexin V, 20 hours; format: cell-based; settings: 5 μM
Protocol: After incubation, cells were washed, stained with FITC-conjugated Annexin V antibody and propidium iodide, and fluorescence measured by flow cytometry as described above.

Row | Compound | LC (lowest concentration with a ratio of 2 or higher in the derepression assay) (XIAP-inhibited caspase-3; tested at 0.4, 2, 10 and 50) [µg/mL] | % nonviable cells (Jurkat leukemia cells; 1 µM) [%] | % nonviable cells (Jurkat leukemia cells; 10 µM) [%] | % nonviable cells (Jurkat leukemia cells; 25 µM) [%] | % nonviable cells (Jurkat leukemia cells; 50 µM) [%] | further results
1 | N[C@@H](Cc1cccs1)C(=O)N[C@@H](Cc1ccc2ccccc2c1)C(=O)N[C@@H](Cc1ccc(Cl)cc1)C(=O)N[C@@H](CCCCNC(=O)OCC1c2ccccc2-c2ccccc21)C(=O)O [TPI 792-33, L-3-(2-thienyl)-alanyl-L-(2-naphthyl)-alanyl-L-p-chloro-phenylalanyl-L-(e-fluorenylmethyloxycarbonyl)-lysine] (H-[2Thi][2Nal][Phe(4-Cl)]K(Fmoc)-OH) | 0.4 |  |  |  |  | LC (lowest concentration with a ratio of 2 or higher in the derepression assay) (XIAP-inhibited caspase-3): 0.4 micrograms per milliliter; activity in the caspase derepression assay using full length XIAP (XIAP-inhibited caspase-3): activity; Relative Potency (fold versus SMAC peptide) (full length XIAP): 5.2; competition with XIAP binding to the SMAC peptide (SMAC competition assay) (XIAP): activity; cell viability, compound alone [1]: reduced viability of these prostate cancer cells by nearly half; tumor cell killing, combination with VP-16 [1]: more potent tumor cell killing compared to VP-16 alone
2 | N[C@@H](Cc1cccs1)C(=O)N[C@@H](Cc1ccc2ccccc2c1)C(=O)N[C@H](CCCCNC(=O)OCC1c2ccccc2-c2ccccc21)C(=O)N[C@@H](CCCCNC(=O)OCC1c2ccccc2-c2ccccc21)C(=O)O [TPI 792-35, L-3-(2-thienyl)-alanyl, L-(2-naphthyl)-alanyl-D-(e-fluorenylmethyloxycarbonyl)-lysyl-L-(e-fluorenylmethyloxycarbonyl)-lysine] (H-[2Thi][2Nal][dK](Fmoc)K(Fmoc)-OH) | 2 |  |  |  |  | activity in the caspase derepression assay using full length XIAP (XIAP-inhibited caspase-3): activity; Relative Potency (fold versus SMAC peptide) (full length XIAP): 2.5; competition with XIAP binding to the SMAC peptide (SMAC competition assay) (XIAP): activity; cell viability, compound alone [1]: reduced viability of these prostate cancer cells by nearly half; tumor cell killing, combination with VP-16 [1]: more potent tumor cell killing compared to VP-16 alone
3 | CCCC[C@@H](CNCc1ccccc1)N1C[C@@H](CC(C)C)N(CC(C)c2ccc(CC(C)C)cc2)C(=O)C1=O (some centres unmarked) [TPI 1391-1] |  | 18 | 20 | 69 | 91 | 
4 | CCCC[C@@H](CNCc1ccccc1)N1C[C@@H](CC(C)C)N(CCc2cccc(C(F)(F)F)c2)C(=O)C1=O [TPI 1391-4] |  | 20 | 48 | 90 | 86 | 
5 | CCCC[C@@H](CNCc1ccccc1)N1C[C@@H](CC(C)C)N(CC2CCC(C(C)(C)C)CC2)C(=O)C1=O (some centres unmarked) [TPI 1391-5] |  | 17 | 36 | 88 | 88 | 
6 | CCCC[C@H](CNCc1ccccc1)N1C[C@@H](CC(C)C)N(CC2CCC(C(C)(C)C)CC2)C(=O)C1=O (some centres unmarked) [TPI 1391-17] |  | 13 | 45 | 88 | 91 | % nonviable cells (Jurkat leukemia cells; 5 µM): 25%
7 | CCCCCCCN1C(=O)C(=O)N([C@H](CCCC)CNCc2ccccc2)C[C@@H]1Cc1ccc2ccccc2c1 [TPI 1391-21] |  | 16 | 44 | 91 | 94 | Relative Potency (fold versus SMAC peptide) (full length XIAP): 3.7; EC50 (full length XIAP): 33.6 µM
8 | CC(C)Cc1ccc(C(C)CN2C(=O)C(=O)N([C@H](CNCc3ccccc3)Cc3ccc4ccccc4c3)C[C@H]2CC(C)C)cc1 (some centres unmarked) [TPI 1391-25] |  | 16 | 60 | 90 | 87 | 
9 | CC(C)C[C@@H]1CN([C@H](CNCc2ccccc2)Cc2ccc3ccccc3c2)C(=O)C(=O)N1CCc1cccc(C(F)(F)F)c1 [TPI 1391-28] |  | 19 | 55 | 87 | 91 | toxicity to normal bone marrow cells [2]: little toxicity; Relative Potency (fold versus SMAC peptide) (full length XIAP): 5; EC50 (full length XIAP): 25.1 µM; cells killed (Jurkat leukemia cells; 5 μM): about 45%; cells killed (Jurkat leukemia cells; 8 μM): ~80%; EC50 (Jurkat leukemia cells; one-day exposure, read-out: EC50 for killing Jurkat leukemia cells): ~6.5 µM
10 | O=C1C(=O)N([C@H](CNCc2ccccc2)Cc2ccc3ccccc3c2)C[C@H](Cc2ccc3ccccc3c2)N1CCc1cccc(C(F)(F)F)c1 [TPI 1391-34] |  |  |  |  |  | Relative Potency (fold versus SMAC peptide) (full length XIAP): 3.3; EC50 (full length XIAP): 39.4 µM
11 | COc1ccc(CCN(CCCC[C@@H](CN(C(=O)Nc2ccccc2)[C@@H](CNC(=O)Nc2ccccc2)CC2CCCCC2)N(C)C(=O)Nc2ccccc2)C(=O)Nc2ccccc2)cc1 [TPI 1396-25] |  |  |  |  |  | Activity* (relative caspase-3 activity: Vmax in the presence of compound / Vmax of controls having caspase-3 and XIAP) (XIAP-inhibited caspase-3): 1.6
12 | COc1ccc(CCN(C(=O)Nc2ccccc2)[C@H](Cc2ccccc2)CN(C(=O)Nc2ccccc2)[C@@H](CNC(=O)Nc2ccccc2)CC2CCCCC2)cc1 [TPI 1396-31] |  |  |  |  |  | Activity* (relative caspase-3 activity: Vmax in the presence of compound / Vmax of controls having caspase-3 and XIAP) (XIAP-inhibited caspase-3): 1.3
13 | O=C(NC[C@@H](CC1CCCCC1)N(C[C@@H]1CCCN1CCC12CC3CC(CC(C3)C1)C2)C(=O)Nc1ccccc1)Nc1ccccc1 [TPI 1396-35] |  |  |  |  |  | Activity* (relative caspase-3 activity: Vmax in the presence of compound / Vmax of controls having caspase-3 and XIAP) (XIAP-inhibited caspase-3): 2.5
14 | (D-Nal)-(D-pClPhe)-(L-pClPhe)-(Lys-εFmoc) ([d2Nal][dPhe(4-Cl)][Phe(4-Cl)]K(Fmoc)) [TPI 792-9] | 10 |  |  |  |  | 
15 | (D-Nal)-(L-Nal)-(D-Lys-εFmoc)-(Lys-εFmoc) ([d2Nal][2Nal][dK](Fmoc)K(Fmoc)) [TPI 792-17] | 2 |  |  |  |  | 
16 | (D-Nal)-(L-Nal)-(L-pClPhe)-(Lys-εFmoc) ([d2Nal][2Nal][Phe(4-Cl)]K(Fmoc)) [TPI 792-15] | 2 |  |  |  |  | 
17 | (D-Nal)-(Lys-εFmoc)-(L-pClPhe)-(Lys-εFmoc) ([d2Nal]K(Fmoc)[Phe(4-Cl)]K(Fmoc)) [TPI 792-3] | 2 |  |  |  |  | 
18 | (L-Ala)-(D-Trp)-(L-Trp)-(L-ThiAla) (A[dW]W[2Thi]) [TPI 1332-47] |  |  |  |  |  | reversing XIAP-mediated suppression of caspase 3 (XIAP-inhibited caspase-3): Active
19 | (L-Ala)-(L-Trp)-(L-Trp)-(L-ThiAla) (AWW[2Thi]) [TPI 1332-1] |  |  |  |  |  | reversing XIAP-mediated suppression of caspase 3 (XIAP-inhibited caspase-3): Active
20 | (L-Cha)-(D-Nal)-(L-Trp)-(L-ThiAla) ([Cha][d2Nal]W[2Thi]) [TPI 1332-41] |  |  |  |  |  | reversing XIAP-mediated suppression of caspase 3 (XIAP-inhibited caspase-3): Active
21 | (L-ThiAla)-(D-pClPhe)-(L-pClPhe)-(Lys-εFmoc) ([2Thi][dPhe(4-Cl)][Phe(4-Cl)]K(Fmoc)) [TPI 792-27] | 2 |  |  |  |  | 
22 | (L-ThiAla)-(Lys-εFmoc)-(D-Nal)-(Lys-εFmoc) ([2Thi]K(Fmoc)[d2Nal]K(Fmoc)) [TPI 792-19] | 2 |  |  |  |  | 
23 | (L-ThiAla)-(Lys-εFmoc)-(L-pClPhe)-(pF-D-F) ([2Thi]K(Fmoc)[Phe(4-Cl)][dPhe(4-F)]) [TPI 792-22] | 2 |  |  |  |  | 

Reference: US20060258581A1, “Methods and composition for derepressions of IAP-inhibited caspase” (priority 2001, published 2006)
